In PubChem BioAssay (NCI):
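Cells were grown in 96-well plates and exposed to each compound for 48 hours at five concentrations; endpoints were interpolated linearly between bracketing concentrations, or set to the highest concentration if not reached. TGI: total growth inhibition.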

How the values were obtained:
Test in all cases: DTP human tumour cell line panel, 48 h
786-0 renal = system: 786-0 renal
A498 renal = system: A498 renal
A549 NSCLC = system: A549 NSCLC
ACHN renal = system: ACHN renal
BT-549 breast = system: BT-549 breast
CAKI-1 renal = system: CAKI-1 renal
CCRF-CEM leukemia = system: CCRF-CEM leukemia
COLO 205 colon = system: COLO 205 colon
DU-145 prostate = system: DU-145 prostate
EKVX NSCLC = system: EKVX NSCLC
HCC-2998 colon = system: HCC-2998 colon
HCT-116 colon = system: HCT-116 colon
HCT-15 colon = system: HCT-15 colon
HL-60(TB) leukemia = system: HL-60(TB) leukemia
HOP-62 NSCLC = system: HOP-62 NSCLC
HOP-92 NSCLC = system: HOP-92 NSCLC
HS 578T breast = system: HS 578T breast
HT29 colon = system: HT29 colon
IGROV1 ovarian = system: IGROV1 ovarian
K-562 leukemia = system: K-562 leukemia
KM12 colon = system: KM12 colon
LOX IMVI melanoma = system: LOX IMVI melanoma
M14 melanoma = system: M14 melanoma
MALME-3M melanoma = system: MALME-3M melanoma
MCF7 breast = system: MCF7 breast
MDA-MB-231 breast = system: MDA-MB-231 breast
MDA-MB-435 = system: MDA-MB-435
MDA-N = system: MDA-N
MOLT-4 leukemia = system: MOLT-4 leukemia
NCI-H226 lung = system: NCI-H226 lung
NCI-H23 lung = system: NCI-H23 lung
NCI-H460 lung = system: NCI-H460 lung
NCI-H522 lung = system: NCI-H522 lung
NCI/ADR-RES ovarian = system: NCI/ADR-RES ovarian
OVCAR-3 ovarian = system: OVCAR-3 ovarian
OVCAR-4 ovarian = system: OVCAR-4 ovarian
OVCAR-5 ovarian = system: OVCAR-5 ovarian
OVCAR-8 ovarian = system: OVCAR-8 ovarian
PC-3 prostate = system: PC-3 prostate
RPMI-8226 leukemia = system: RPMI-8226 leukemia
RXF 393 renal = system: RXF 393 renal
SF-268 CNS = system: SF-268 CNS
SF-295 CNS = system: SF-295 CNS
SF-539 CNS = system: SF-539 CNS
SK-MEL-2 melanoma = system: SK-MEL-2 melanoma
SK-MEL-28 melanoma = system: SK-MEL-28 melanoma
SK-MEL-5 melanoma = system: SK-MEL-5 melanoma
SK-OV-3 ovarian = system: SK-OV-3 ovarian
SN12C renal = system: SN12C renal
SNB-19 CNS = system: SNB-19 CNS
SNB-75 CNS = system: SNB-75 CNS
SR leukemia = system: SR leukemia
SW-620 colon = system: SW-620 colon
T-47D breast = system: T-47D breast
TK-10 renal = system: TK-10 renal
U251 CNS = system: U251 CNS
UACC-257 melanoma = system: UACC-257 melanoma
UACC-62 melanoma = system: UACC-62 melanoma
UO-31 renal = system: UO-31 renal

NC1CC(=O)c2csc(Br)c21 (stereo not drawn)
TGI (786-0 renal): > 50.7 µM | TGI (A498 renal): > 57.9 µM | TGI (A549 NSCLC): > 100 µM | TGI (ACHN renal): 32.2 µM | TGI (BT-549 breast): 26.5 µM | TGI (CAKI-1 renal): 27.5 µM | TGI (CCRF-CEM leukemia): > 100 µM | TGI (COLO 205 colon): > 51.4 µM | TGI (DU-145 prostate): > 52.1 µM | TGI (EKVX NSCLC): 33.1 µM | TGI (HCC-2998 colon): 34.6 µM | TGI (HCT-116 colon): > 44.2 µM | TGI (HCT-15 colon): 41.2 µM | TGI (HL-60(TB) leukemia): 61.3 µM | TGI (HOP-62 NSCLC): > 72 µM | TGI (HOP-92 NSCLC): 24.5 µM | TGI (HS 578T breast): 46.5 µM | TGI (HT29 colon): 43.8 µM | TGI (IGROV1 ovarian): 25.4 µM | TGI (K-562 leukemia): > 82.4 µM | TGI (KM12 colon): > 57.9 µM | TGI (LOX IMVI melanoma): 29 µM | TGI (M14 melanoma): > 53.6 µM | TGI (MALME-3M melanoma): 33.9 µM | TGI (MCF7 breast): 68 µM | TGI (MDA-MB-231 breast): > 53.6 µM | TGI (MDA-MB-435): 32.9 µM | TGI (MDA-N): 28.4 µM | TGI (MOLT-4 leukemia): 46.8 µM | TGI (NCI-H226 lung): 69.2 µM | TGI (NCI-H23 lung): 30.8 µM | TGI (NCI-H460 lung): > 67.4 µM | TGI (NCI-H522 lung): 8.21 µM | TGI (NCI/ADR-RES ovarian): 44.4 µM | TGI (OVCAR-3 ovarian): 30.7 µM | TGI (OVCAR-4 ovarian): 30.5 µM | TGI (OVCAR-5 ovarian): 29.3 µM | TGI (OVCAR-8 ovarian): 33.6 µM | TGI (PC-3 prostate): 28.4 µM | TGI (RPMI-8226 leukemia): 34.2 µM | TGI (RXF 393 renal): 36 µM | TGI (SF-268 CNS): 44.1 µM | TGI (SF-295 CNS): > 100 µM | TGI (SF-539 CNS): 8.24 µM | TGI (SK-MEL-2 melanoma): 31.3 µM | TGI (SK-MEL-28 melanoma): 37.9 µM | TGI (SK-MEL-5 melanoma): > 59.2 µM | TGI (SK-OV-3 ovarian): > 100 µM | TGI (SN12C renal): > 44.3 µM | TGI (SNB-19 CNS): > 80.3 µM | TGI (SNB-75 CNS): > 79.5 µM | TGI (SR leukemia): 47.5 µM | TGI (SW-620 colon): 24.8 µM | TGI (T-47D breast): > 59.3 µM | TGI (TK-10 renal): 27.6 µM | TGI (U251 CNS): > 60 µM | TGI (UACC-257 melanoma): 34.8 µM | TGI (UACC-62 melanoma): 33.2 µM | TGI (UO-31 renal): 30.7 µM

OCCN(CCO)c1ccc2c(C(F)(F)F)cc(C(F)(F)F)nc2n1
TGI (786-0 renal): > 100 µM | TGI (A498 renal): > 100 µM | TGI (A549 NSCLC): > 100 µM | TGI (ACHN renal): > 100 µM | TGI (BT-549 breast): > 100 µM | TGI (CAKI-1 renal): > 100 µM | TGI (CCRF-CEM leukemia): > 100 µM | TGI (COLO 205 colon): > 100 µM | TGI (DU-145 prostate): > 100 µM | TGI (EKVX NSCLC): > 100 µM | TGI (HCC-2998 colon): > 100 µM | TGI (HCT-116 colon): > 100 µM | TGI (HCT-15 colon): > 100 µM | TGI (HL-60(TB) leukemia): > 100 µM | TGI (HOP-62 NSCLC): > 100 µM | TGI (HOP-92 NSCLC): > 100 µM | TGI (HS 578T breast): > 100 µM | TGI (HT29 colon): > 100 µM | TGI (IGROV1 ovarian): > 100 µM | TGI (K-562 leukemia): > 100 µM | TGI (KM12 colon): > 100 µM | TGI (LOX IMVI melanoma): > 100 µM | TGI (M14 melanoma): > 100 µM | TGI (MALME-3M melanoma): > 100 µM | TGI (MCF7 breast): > 100 µM | TGI (MDA-MB-231 breast): > 100 µM | TGI (MDA-MB-435): > 100 µM | TGI (MDA-N): > 100 µM | TGI (MOLT-4 leukemia): > 100 µM | TGI (NCI-H226 lung): > 100 µM | TGI (NCI-H23 lung): > 100 µM | TGI (NCI-H460 lung): > 100 µM | TGI (NCI-H522 lung): > 100 µM | TGI (NCI/ADR-RES ovarian): > 100 µM | TGI (OVCAR-3 ovarian): > 100 µM | TGI (OVCAR-4 ovarian): > 100 µM | TGI (OVCAR-5 ovarian): > 100 µM | TGI (OVCAR-8 ovarian): > 100 µM | TGI (PC-3 prostate): > 100 µM | TGI (RPMI-8226 leukemia): > 100 µM | TGI (RXF 393 renal): > 100 µM | TGI (SF-268 CNS): > 100 µM | TGI (SF-295 CNS): > 100 µM | TGI (SF-539 CNS): > 100 µM | TGI (SK-MEL-2 melanoma): > 100 µM | TGI (SK-MEL-28 melanoma): > 100 µM | TGI (SK-MEL-5 melanoma): > 100 µM | TGI (SK-OV-3 ovarian): > 100 µM | TGI (SN12C renal): > 100 µM | TGI (SNB-19 CNS): > 100 µM | TGI (SNB-75 CNS): > 100 µM | TGI (SR leukemia): > 100 µM | TGI (SW-620 colon): > 100 µM | TGI (T-47D breast): > 100 µM | TGI (TK-10 renal): > 100 µM | TGI (U251 CNS): > 100 µM | TGI (UACC-257 melanoma): > 100 µM | TGI (UACC-62 melanoma): > 100 µM | TGI (UO-31 renal): > 100 µM
